# Test results taken from patent US12048725B2, “Methods for promoting intestinal health and for enhancing antioxidation using prebiotic composition” (TCI CO., LTD., priority 2022, dated 2024).
# System: Akkermansia muciniphila
# Assay: Effects of prebiotic compositions with different components on growth of Akkermansia muciniphila (Example 2)
# Format: cell-based
# Source text: The xylooligosaccharide used was purchased from Shandong Longlive Bio-Technology Co., Ltd. The lactitol used was purchased from Welltech Biotechnology Co., Ltd. The inulin used was purchased from Cosucra. The fructooligosaccharide used was purchased from Meiji. The grape ferment used was the grape ferment prepared in Example 1. The liquid medium used was tryptone soy broth (TSB; hereinafter referred to as TSB medium) with 5% sheep blood (purchased from BD).
# The groups were divided into blank group, 5 experimental groups (experimental groups A-E) and 5 control groups (control groups A-E), as shown in Table 1.
# The experimental medium used in control groups A-E included 94% TSB medium, 5% sheep blood and 1% single-component prebiotic compositions A-E, respectively; and the single-component prebiotic compositions A-E were xylooligosaccharide, lactitol, inulin, fructooligosaccharide and grape ferment, respectively. […]
# 1% activated Akkermansia muciniphila was respectively added to a 15 mL test tube containing 5 mL of medium of each group, and subjected to anaerobic culture at 37° C. for 48 hours. After 48 hours of culture, 100 μL of bacterial suspension was respectively taken from the test tube of each group, added to the solid TSB medium containing 5% sheep blood, and subjected to anaerobic culture at 37° C. for 72 hours, and then, the bacterial count of each group was calculated. […]
smiles,measurement,setting,value
"OC[C@@H](O)[C@@H](O[C@@H]1O[C@H](CO)[C@H](O)[C@H](O)[C@H]1O)[C@H](O)[C@@H](O)CO [control group B, lactitol]",bacterial count,"1% prebiotic composition in 94% TSB medium + 5% sheep blood, anaerobic culture at 37° C. for 48 hours, then plated 72 hours, blank group 6.50 log CFU",6.67 log CFU
same,effect on bacterial count/growth of Akkermansia muciniphila as compared with the blank group,"1% prebiotic composition in medium, FIG. 1",increased the bacterial count of Akkermansia muciniphila
